Results on 13 compounds are retold here after paper PMC7115494 (European Journal of Medicinal Chemistry, 2012).

Where only a bound is given, the exact number is not on record here.

Usually EC50 stands for the concentration needed to bring the measured effect to its halfway point.

One data set relates to HEL cells. The data set is described as follows: Cytotoxicity in HEL cells: cell morphology. It counts as cell-based, human. The following applies: microscopically detectable alteration of cell morphology.
The next data set concerns VZV TK+ strain YS. It counts as cell-based, varicella-zoster virus. As to conditions: HEL fibroblasts.
For another data set, the system named is VZV. The data set is described as follows: Antiviral activity against VZV, strains summarised in text. It is filed as cell-based, varicella-zoster virus. The following applies: for EC50: Human alphaherpesvirus 3, read-out: EC50 VZV, range over strains.
The test system of the next data set is HSV. The data set is described as follows: Antiviral activity against HSV, strains summarised in text. It counts as cell-based, herpes simplex virus. As to conditions: for EC50: read-out: EC50 HSV, range over strains.
The next data set has as its system HCMV. The data set is described as follows: Antiviral activity against HCMV, strains summarised in text. It counts as cell-based, human cytomegalovirus. As to conditions: for EC50: Human betaherpesvirus 5, read-out: EC50 HCMV, range over strains.
For the next data set, the system named is Feline herpesvirus. The data set is described as follows: Antiviral activity against feline herpesvirus in CRFK cells. It is filed as cell-based.
The subject of data set [1] is herpesviruses and poxviruses. As to conditions: for Activity against herpesviruses and poxviruses: in vitro.
A further data set deals with VZV TK+ strain Oka. The data set is described as follows: microbe, parasite or virus in culture. It counts as cell-based, varicella-zoster virus. The following applies: Human alphaherpesvirus 3, Fibroblast, read-out: EC50 VZV TK+ strain Oka.
The test system of data set [2] is Vaccinia virus Lederle strain. The data set is described as follows: microbe, parasite or virus in culture. It counts as cell-based.
In a further data set the test system is VZV TK- strain YS/R. It counts as cell-based, varicella-zoster virus. The following applies: HEL fibroblasts.
The subject of data set [3] is herpesviruses and poxviruses. The following applies: EC50 in the μM range; cited from earlier work.

Take `Nc1ccn(C[C@@H](CO)OCP(=O)(O)O)c(=O)n1.O.O` [Cidofovir, reference compound]: the “Cytotoxicity in HEL cells, cell morphology, MCC (minimum cytotoxic concentration)” value with HEL cells was more than 317 μM.
As for `CCCCCCCCCCCCCCCCOCCCOP1(=O)CO[C@@H](Cn2cnc3c(=O)[nH]c(N)nc32)CO1` (stereo partly drawn) [Compound 18, 3-(Hexadecyloxypropyl) ester of 9-{[(5S)-2-hydroxy-2-oxido-1,4,2-dioxaphosphinan-5-yl]methyl}guanine], the “Selectivity index (ratio CC50 to EC50) VZV YS” value in the data set with VZV TK+ strain YS was 19,000. The “Cytotoxicity in HEL cells, cell morphology, MCC (minimum cytotoxic concentration)” value with HEL cells is given as not below 171.3 μM. Moreover, the EC50 with VZV lay within 1 to 2.5 nM; in the data set with HSV it was 7 to 90 nM; with HCMV, 2 to 7 nM. Further, the “Selectivity index VZV, range over strains” value in the data set with VZV (ratio CC50 to EC50) is on record as 2700–19,000. Further, the “Selectivity index HSV, range over strains” value in the data set with HSV (ratio CC50 to EC50) is 211–559. Also, the “Selectivity index HCMV, range over strains” value in the data set with HCMV (ratio CC50 to EC50) is listed as 3800–9500.
`CCCCCCCCCCCCCCCCOCCCOP(=O)(O)CO[C@H](CO)Cn1cnc2c(=O)[nH]c(N)nc21` [Compound 16, 3-(Hexadecyloxypropyl) ester of 9-(S)-[3-hydroxy-2-(phosphonomethoxy)propyl]guanine]: in the data set on Feline herpesvirus (CRFK cells), the “Activity against feline herpesvirus” value was “inactive”. Also, in the data set on HEL cells, the “Cytotoxicity in HEL cells, cell morphology, MCC (minimum cytotoxic concentration)” value was not below 1.3 μM. The EC50 in the data set with VZV lay within 1 to 2.5 nM; in the data set with HSV it was 7 to 90 nM; in the data set with HCMV it was 2 to 7 nM. Besides, in data set [1] (across viruses), the “SIs fold lower compared to compound 18” value is on record as 2- to 66 fold.
Take `O=c1[nH]c(=O)n([C@H]2C[C@H](O)[C@@H](CO)O2)cc1/C=C/Br` [Brivudin, reference compound]: the EC50 is 10 ± 10 nM in the data set with VZV TK+ strain Oka and 15000 ± 17000 nM in data set [2] (Orthopoxvirus vaccinia, Fibroblast, read-out: EC50 Vaccinia virus Lederle). In addition, in the data set on HEL cells, the “Cytotoxicity in HEL cells, cell morphology, MCC (minimum cytotoxic concentration)” value is reported as more than 300 μM.
`Nc1nc2c(ncn2COCCO)c(=O)[nH]1` [Acyclovir, reference compound]: the “Cytotoxicity in HEL cells, cell morphology, MCC (minimum cytotoxic concentration)” value in the data set on HEL cells is recorded as more than 444 μM.
Regarding `CCCCCCCCCCCCCCCCOCCCOP(=O)(CCOCCn1cnc2c(=O)[nH]cnc21)OCCCOCCCCCCCCCCCCCCCC` [Compound 3, Bis 3-(hexadecyloxypropyl) ester of 9-[2-(phosphonomethoxy)ethyl]hypoxanthine], the “Cytotoxicity in HEL cells, cell morphology, MCC (minimum cytotoxic concentration)” value with HEL cells is not below 117 μM. Also, the “Activity against herpesviruses and poxviruses” value in data set [1] is “inactive”.
`Nc1nc(O)c2ncn(COC(CO)CO)c2n1` [Ganciclovir, reference compound]: in the data set with HEL cells, the “Cytotoxicity in HEL cells, cell morphology, MCC (minimum cytotoxic concentration)” value was more than 394 μM.
For `CCCCCCCCCCCCCCCCOCCCOP(=O)(O)CO[C@H](CO)Cn1cnc2c(=O)[nH]cnc21` [Compound 15, 3-(Hexadecyloxypropyl) ester of 9-(S)-[3-hydroxy-2-(phosphonomethoxy)propyl]hypoxanthine], the “Cytotoxicity in HEL cells, cell morphology, MCC (minimum cytotoxic concentration)” value in the data set on HEL cells was not below 34 μM. For the same compound, in data set [1], the “Activity against herpesviruses and poxviruses” value was “totally inactive”.
Consider `Nc1nc2c(ncn2C[C@H]2COP(=O)(O)CO2)c(=O)[nH]1` [(S)-cHPMPG, reference compound], for which the “Cytotoxicity in HEL cells, cell morphology, MCC (minimum cytotoxic concentration)” value with HEL cells was more than 100 μM.
Take `CCCCCCCCCCCCCCCCOCCCOP(=O)(CO[C@H](CO)Cn1cnc2c(=O)[nH]c(N)nc21)OCCCOCCCCCCCCCCCCCCCC` [Compound 14, Bis 3-(hexadecyloxypropyl) ester of 9-(S)-[3-hydroxy-2-(phosphonomethoxy)propyl]guanine]: the “Selectivity index (ratio CC50 to EC50) VZV YS/R” value with VZV TK- strain YS/R is more than 57. For the same compound, the “Fold difference of EC50 versus parent compound (S)-HPMPG, feline herpesvirus” value in the data set on Feline herpesvirus (printed as lower than parent) is given as 157 fold. Also, the “Fold difference of EC50 versus parent compound (S)-HPMPG, VACV” value in data set [2] was 41 fold. For the same compound, the “Cytotoxicity in HEL cells, cell morphology, MCC (minimum cytotoxic concentration)” value in the data set with HEL cells is not below 22.6 μM. In addition, the “Fold difference of EC50 versus parent compound (S)-HPMPG, VZV” value with VZV (printed as lower than parent) turned out to be 7 fold. In addition, in the data set with HSV (printed as lower than parent), the “Fold difference of EC50 versus parent compound (S)-HPMPG, HSV” value is given as 15- to 40 fold. The “Fold difference of EC50 versus parent compound (S)-HPMPG, HCMV” value in the data set with HCMV (printed as lower than parent) was 7 fold.
Turning to `CCCCCCCCCCCCCCCCOCCCOP(=O)(CO[C@H](CO)Cn1cnc2c(=O)[nH]cnc21)OCCCOCCCCCCCCCCCCCCCC` [Compound 13, Bis 3-(hexadecyloxypropyl) ester of 9-(S)-[3-hydroxy-2-(phosphonomethoxy)propyl]hypoxanthine], the “Cytotoxicity in HEL cells, cell morphology, MCC (minimum cytotoxic concentration)” value in the data set with HEL cells is listed as not below 23 μM. Further, the “Activity against herpesviruses and poxviruses” value in data set [1] was “totally inactive”.
Consider `Nc1nc2c(ncn2C[C@@H](CO)OCP(=O)(O)O)c(=O)[nH]1` [(S)-HPMPG, 9-(S)-[3-hydroxy-2-(phosphonomethoxy)propyl]guanine, reference compound], for which the “Cytotoxicity in HEL cells, cell morphology, MCC (minimum cytotoxic concentration)” value with HEL cells is listed as more than 100 μM. Also, the “Reported activity against HSV-1, HSV-2, VZV, CMV and vaccinia virus” value in data set [3] is reported as “active”.
On to `CCCCCCCCCCCCCCCCOCCCOP1(=O)CO[C@@H](Cn2cnc3c(=O)[nH]cnc32)CO1` (stereo partly drawn) [Compound 17, 3-(Hexadecyloxypropyl) ester of 9-{[(5S)-2-hydroxy-2-oxido-1,4,2-dioxaphosphinan-5-yl]methyl}hypoxanthine], for which, in the data set on HEL cells, the “Cytotoxicity in HEL cells, cell morphology, MCC (minimum cytotoxic concentration)” value is given as not below 7 μM. Besides, in data set [1], the “Activity against herpesviruses and poxviruses” value is “totally inactive”.
